Measured values as given in US9540343B2 (Gilead Sciences, Inc., priority 2011, dated 2017).

Assays:
HIV-IIIb = test: Test A: Antiviral assay in MT4 cells; format: cell-based, HIV-1; conditions: Human immunodeficiency virus 1, IIIB, MT4, 120 h, read-out: % inhibition at 2 μM, percent inhibition of virus-induced cell killing, from dose response curve at 2 uM drug; MT-4 cells infected with HIV-IIIb, 5 days, CellTiter-Glo
in vitro = conditions: human, uninfected MT-4 cells, CC50 (nM), same protocol as Test A, CellTiter-Glo
Method: For the antiviral assay, 40 μL of 1× test concentration of 3-fold serially diluted compound in culture medium with 10% FBS was added to each well of a 384-well plate (10 concentrations) in quadruplicate. MT-4 cells were next mixed with HIV-IIIb at an m.o.i of 0.003 for 1 hour, after which time 35 μL of virus/cell mixture (2000 cells) was immediately added to each well containing 40 μL of diluted compound. The plates were then incubated at 37° C. for 5 days. After 5 days of incubation, 25 μl of 2× concentrated CellTiter-Glo™ Reagent (catalog #G7571, Promega Biosciences, Inc., Madison, Wis.) was added to each well containing MT-4 cells. Cell lysis was carried out by incubating at room temperature for 10 min and then chemiluminescence was read.
Test B: Cytotoxicity Assay
Compound cytotoxicity and the corresponding CC50 values was determined using the same protocol as described in the antiviral assay (Test A) except that uninfected cells were used.

Row | Compound | inhibition at 2 µM (HIV-IIIb) [%] | CC50 at 5 days (in vitro) [nM]
1 | Cc1ccccc1-c1ccnc(C(Cc2cc(F)cc(F)c2)NC(=O)Cc2c[nH]c3ccc(O)cc23)n1 (stereo not shown) [Example 11, N-(2-(3,5-difluorophenyl)-1-(4-o-tolylpyrimidin-2-yl)ethyl)-2-(5-hydroxy-1H-indol-3-yl)acetamide] | 0 | 35700
2 | Cc1ccccc1-c1ccnc(C(Cc2cc(F)cc(F)c2)NC(=O)Cn2nc(C(F)(F)F)c3c2CCCC3)n1 (stereo not shown) [Example 12, N-(2-(3,5-difluorophenyl)-1-(4-o-tolylpyrimidin-2-yl)ethyl)-2-(3-(trifluoromethyl)-4,5,6,7-tetrahydro-1H-indazol-1-yl)acetamide] | 0 | 8980
3 | COc1ccc(-c2cccnc2[C@H](Cc2cc(F)cc(F)c2)NC(=O)Cc2c[nH]c3ccc(O)cc23)cc1 [Example 13G, (S)—N-(2-(3,5-difluorophenyl)-1-(3-(4-methoxyphenyl)pyridin-2-yl)ethyl)-2-(5-hydroxy-1H-indol-3-yl)acetamide] | 97 | 25600
4 | Cc1ccccc1-c1cccnc1[C@H](Cc1ccccc1)NC(=O)Cc1c[nH]c2ccc(O)cc12 [Example 14, (S)-2-(5-hydroxy-1H-indol-3-yl)-N-(2-phenyl-1-(3-o-tolylpyridin-2-yl)ethyl)acetamide] | 76 | 25400
5 | Cc1ccccc1-c1cccnc1[C@@H](Cc1ccccc1)NC(=O)Cc1c[nH]c2ccc(O)cc12 [Example 15, (R)-2-(5-hydroxy-1H-indol-3-yl)-N-(2-phenyl-1-(3-o-tolylpyridin-2-yl)ethyl)acetamide] | 0 | 28200
6 | Cc1ccccc1-c1cccnc1[C@@H](Cc1ccccc1)NC(=O)Cn1nc(C(F)(F)F)c2c1CCCC2 [Example 16, (R)—N-(2-phenyl-1-(3-o-tolylpyridin-2-yl)ethyl)-2-(3-(trifluoromethyl)-4,5,6,7-tetrahydro-1H-indazol-1-yl)acetamide] | 0 | 14000
7 | Cc1ccccc1-c1cccnc1[C@H](Cc1ccccc1)NC(=O)Cn1nc(C(F)(F)F)c2c1CCCC2 [Example 17, (S)—N-(2-phenyl-1-(3-o-tolylpyridin-2-yl)ethyl)-2-(3-(trifluoromethyl)-4,5,6,7-tetrahydro-1H-indazol-1-yl)acetamide] | 70 | 13800
8 | COc1ccc(-c2cccnc2[C@@H](Cc2ccccc2)NC(=O)Cn2nc(C(F)(F)F)c3c2CCCC3)c(C)c1 [Example 18, (R)—N-(1-(3-(4-methoxy-2-methylphenyl)pyridin-2-yl)-2-phenylethyl)-2-(3-(trifluoromethyl)-4,5,6,7-tetrahydro-1H-indazol-1-yl)acetamide] | 0 | 14600
9 | COc1ccc(-c2cccnc2[C@H](Cc2ccccc2)NC(=O)Cn2nc(C(F)(F)F)c3c2CCCC3)c(C)c1 [Example 19, (S)—N-(1-(3-(4-methoxy-2-methylphenyl)pyridin-2-yl)-2-phenylethyl)-2-(3-(trifluoromethyl)-4,5,6,7-tetrahydro-1H-indazol-1-yl)acetamide] | 25 | 14200
10 | COc1ccc(-c2cccnc2[C@H](Cc2ccccc2)NC(=O)Cc2c[nH]c3ccc(O)cc23)cc1 [Example 20, (S)-2-(5-hydroxy-1H-indol-3-yl)-N-(1-(3-(4-methoxyphenyl)pyridin-2-yl)-2-phenylethyl)acetamide] | 84 | 48300
11 | COc1ccc(-c2cccnc2[C@H](Cc2ccccc2)NC(=O)Cn2nc(C(F)(F)F)c3c2CCCC3)cc1 [Example 21, (S)—N-(1-(3-(4-methoxyphenyl)pyridin-2-yl)-2-phenylethyl)-2-(3-(trifluoromethyl)-4,5,6,7-tetrahydro-1H-indazol-1-yl)acetamide] | 28 | 15500
12 | COc1ccc(-c2cccnc2[C@@H](Cc2ccccc2)NC(=O)Cc2c[nH]c3ccc(O)cc23)cc1 [Example 22, (R)-2-(5-hydroxy-1H-indol-3-yl)-N-(1-(3-(4-methoxyphenyl)pyridin-2-yl)-2-phenylethyl)acetamide] | 0 | 45700
13 | COc1ccc(-c2cccnc2[C@@H](Cc2ccccc2)NC(=O)Cn2nc(C(F)(F)F)c3c2CCCC3)cc1 [Example 23, (R)—N-(1-(3-(4-methoxyphenyl)pyridin-2-yl)-2-phenylethyl)-2-(3-(trifluoromethyl)-4,5,6,7-tetrahydro-1H-indazol-1-yl)acetamide] | 0 | 13800
14 | Cc1ccccc1-c1cccnc1[C@H](Cc1cccc(F)c1)NC(=O)Cc1c[nH]c2ccc(O)cc12 [Example 24, (S)—N-(2-(3-fluorophenyl)-1-(3-o-tolylpyridin-2-yl)ethyl)-2-(5-hydroxy-1H-indol-3-yl)acetamide] | 39 | 24800
15 | Cc1ccccc1-c1cccnc1[C@H](Cc1cccc(F)c1)NC(=O)Cn1nc(C(F)(F)F)c2c1CCCC2 [Example 25, (S)—N-(2-(3-fluorophenyl)-1-(3-o-tolylpyridin-2-yl)ethyl)-2-(3-(trifluoromethyl)-4,5,6,7-tetrahydro-1H-indazol-1-yl)acetamide] | 71 | 11900
16 | Cc1ccccc1-c1cccnc1[C@H](Cc1cc(F)cc(F)c1)NC(=O)Cc1c[nH]c2ccc(O)cc12 [Example 26, (S)—N-(2-(3,5-difluorophenyl)-1-(3-o-tolylpyridin-2-yl)ethyl)-2-(5-hydroxy-1H-indol-3-yl)acetamide] | 70 | 24500
17 | Cc1ccccc1-c1cccnc1[C@H](Cc1cc(F)cc(F)c1)NC(=O)Cn1nc(C(F)(F)F)c2c1CCCC2 [Example 27, (S)—N-(2-(3,5-difluorophenyl)-1-(3-o-tolylpyridin-2-yl)ethyl)-2-(3-(trifluoromethyl)-4,5,6,7-tetrahydro-1H-indazol-1-yl)acetamide] | 72 | 12000
18 | COc1ccc(-c2cccnc2[C@H](Cc2cccc(F)c2)NC(=O)Cc2c[nH]c3ccc(O)cc23)cc1 [Example 28, (S)—N-(2-(3-fluorophenyl)-1-(3-(4-methoxyphenyl)pyridin-2-yl)ethyl)-2-(5-hydroxy-1H-indol-3-yl)acetamide] | 93 | 26000
19 | COc1ccc(-c2cccnc2[C@H](Cc2cccc(F)c2)NC(=O)Cn2nc(C(F)(F)F)c3c2CCCC3)cc1 [Example 29, (S)—N-(2-(3-fluorophenyl)-1-(3-(4-methoxyphenyl)pyridin-2-yl)ethyl)-2-(3-(trifluoromethyl)-4,5,6,7-tetrahydro-1H-indazol-1-yl)acetamide] | 36 | 13200
20 | COc1ccc(-c2cccnc2[C@H](Cc2cc(F)cc(F)c2)NC(=O)Cn2nc(C(F)(F)F)c3c2CCCC3)cc1 [Example 30, (S)—N-(2-(3,5-difluorophenyl)-1-(3-(4-methoxyphenyl)pyridin-2-yl)ethyl)-2-(3-(trifluoromethyl)-4,5,6,7-tetrahydro-1H-indazol-1-yl)acetamide] | 76 | 11900
21 | O=C(Cc1c[nH]c2ccccc12)N[C@@H](Cc1cc(F)cc(F)c1)c1ncccc1-c1ccc(Cl)cc1 [Example 31, (S)—N-(1-(3-(4-chlorophenyl)pyridin-2-yl)-2-(3,5-difluorophenyl)ethyl)-2-(1H-indol-3-yl)acetamide] | 34 | 8630
22 | O=C(Cc1c[nH]c2ccc(F)cc12)N[C@@H](Cc1cc(F)cc(F)c1)c1ncccc1-c1ccc(Cl)cc1 [Example 33, (S)—N-(1-(3-(4-chlorophenyl)pyridin-2-yl)-2-(3,5-difluorophenyl)ethyl)-2-(5-fluoro-1H-indol-3-yl)acetamide] | 75 | 9750
23 | COc1ccc(-c2cccnc2[C@H](Cc2cc(F)cc(F)c2)NC(=O)Cc2c[nH]c3cc(OC)c(OCc4ccccc4)cc23)cc1 [Example 34E, (S)-2-(5-(benzyloxy)-6-methoxy-1H-indol-3-yl)-N-(2-(3,5-difluorophenyl)-1-(3-(4-methoxyphenyl)pyridin-2-yl)ethyl)acetamide] | 0 | 27800
24 | COc1ccc(-c2cccnc2[C@H](Cc2cc(F)cc(F)c2)NC(=O)Cc2c[nH]c3ccc(NS(C)(=O)=O)cc23)cc1 [Example 35G, (S)—N-(2-(3,5-difluorophenyl)-1-(3-(4-methoxyphenyl)pyridin-2-yl)ethyl)-2-(5-(methylsulfonamido)-1H-indol-3-yl)acetamide] | 49 | 22400
25 | O=C(Cc1c[nH]c2ccc(=O)[nH]c12)N[C@@H](Cc1cc(F)cc(F)c1)c1ncccc1-c1ccc(Cl)cc1 [Example 37, (S)—N-(1-(3-(4-chlorophenyl)pyridin-2-yl)-2-(3,5-difluorophenyl)ethyl)-2-(5-oxo-4,5-dihydro-1H-pyrrolo[3,2-b]pyridin-3-yl)acetamide] | 84 | 34200
26 | O=C(Cc1c[nH]c2ccc(O)cc12)N[C@@H](Cc1cc(F)cc(F)c1)c1ncccc1Br [Example 38D, (S)—N-(1-(3-bromopyridin-2-yl)-2-(3,5-difluorophenyl)ethyl)-2-(5-hydroxy-1H-indol-3-yl)acetamide] | 3 | 42600
